Test results published in patent US8008071B2 (University of South Florida, priority 1999, dated 2011).
“Also recorded” adds a separate entry of the source.

Tests used:
[1] = test system: PKCβII mRNA; assay: RT-PCR of PKCβII mRNA in synchronized A10 cells; type: cell-based, rat; conditions: for effect of glucose analogs on PKCβII mRNA: 25 mM analog; for PERCENT OF PKCβII mRNA POST-GLUCOSE TREATMENT: inhibitor added 30 minutes prior to 25 mM glucose, 5.5 mM glucose control = 100%; for PERCENT OF PKCβII mRNA POST-GLUCOSE TREATMENT / effect of inhibitor on glucose-induced destabilization of PKCβII mRNA: synchronized A10 cells; for effect of inhibitor on glucose-induced destabilization of PKCβII mRNA: 30 minutes pre-incubation, then 25 mM glucose
Protocol: (§1) Reverse Transcriptase-Polymerase Chain Reaction. […] The upstream sense primer corresponded to the C4 kinase domain common to both PKCβI and PKCβII (5′ […] 3′) [SEQ ID NO:4] and the downstream antisense primer was specific for PKCβI (5′ […] 3′) [SEQ ID NO:5] (Chalfant et al., 1995, pp.13326-13332). These primers detect inclusion of the PKCβII exon in the mature mRNA as well as PKCβI mRNA. Sense and antisense primers for β-actin (#5402-3) were obtained from Clonetech. PCR was performed using ampliTaq Gold DNA polymerase from PERKIN ELMER (#N808-0240) on 10% of the reverse transcriptase reaction product. Following 35 cycles of amplification in a BIOMETRA Trioblock thermocycler (PKCβI and -βII: 95° C., 30 sec; 64° C., 2 min for 35 cycles; and for β-actin: 94° C., 1 min; 58° C., 1 min; and 72° C., 3 min for 35 cycles), 25% of the PCR reaction was resolved on a 1.2% agarose gel. Bands were observed under UV light and photographed.
Primers were designed for the upstream common kinase region (C4) (-sense primer) and the PKCβI exon (-antisense primer) for simultaneous amplification of both PKCβI and -βII messages by RT-PCR.

[2] = test system: rat VSMC; conditions: cited from earlier work
[3] = test system: PKCβ(I+II) mRNA; assay: In vitro RNA stability assay with post-nuclear extracts of A10 cells; parameters: species or system rat; conditions: 50 mM EDTA added to the reaction mix
Protocol: RNA stability assay. To prepare post-nuclear extracts (see, for example, Wager, R. E. and R. K. Assoian. 1990. A phorbol ester-regulated ribonuclease system controlling transforming growth factor BI gene expression in hematopoietic cells. Mol. Cell. Biol. 10:5983-5990), synchronized A1O cells, re-initiated to proliferate with DMEM+10% FBS were treated with either 5.5 mM or 25 mM glucose for 2 h to 24 h, then washed and collected in ice-cold 1× DPBS. The cellular pellet was re-suspended in extract buffer containing 0.01M Tris-HCl, 0.15M NaCl, 0.5% Nonidet P-40, leupeptin (10 μg/ml) and aprotonin (10 μg/ml) incubated on ice for 10 minutes and carefully layered over extract buffer containing 24% sucrose. Samples were centrifuged over a sucrose gradient at 1 0,000xg for 20 minutes at 4° C. Post-nuclear extract was separated, stored on ice and aliquots taken for protein concentration using Bradford protein assay (see Bradford, M. M. 1976. A rapid and sensitive method for the quantitation of microgram quantities of protein utilizing the principle of protein-dye bindingno title. Anal. Biochem. 72:248-254). Total RNA (10 μg) from A10 cells, was incubated with 2.7% (vol/vol) of the post-nuclear extracts for 30 minutes at 4° C. in 50 μl (final volume) of extract buffer. When specifically noted, 50 mM EDTA was added to the reactions as a control to inhibit nuclease activity. […]

[4] = test system: PKCβI mRNA; assay: RT-PCR of PKCβI mRNA in synchronized A10 cells; type: cell-based, rat; conditions: 4 hours
Protocol: as §1
Thus, the PKCβII transcript contains the PKCβI exon with the poly A tail and a common 3′ untranslated region (FIG. 25). Inclusion of the alternatively spliced exon encodes a stop codon such that the PKCβI exon facilitates poly-adenylation but the exon is not translated, thereby generating PKCβII protein. […] Although, this assay is semi-quantitative, the ration of PKCβII to PKCβI mRNA was about 2 to 1.

[5] = target: PP2A; conditions: cited from earlier work
[6] = target: PP1; conditions: cited from earlier work
[7] = target: PP2B; conditions: cited from earlier work
[8] = test system: IL-3 3′-UTR ARE transcript; conditions: cited from earlier work
[9] = test system: PKCβ promoter; assay: PKCβ promoter-CAT deletion constructs transiently transfected into A10 cells; type: cell-based, rat; conditions: 100 nM TPA
Protocol: Calcium-phosphate transfections. For promoter studies, A10 cells were grown and synchronized in 6-well plates. Three hours prior to transfections, fresh medium (DMEM containing 10% fetal bovine serum) was substituted on A10 cells. pβG or pβG-PKCβII expression vectors were transfected with the calcium-phosphate-DNA precipitate. Following overnight incubation, calcium phosphate-DNA precipitate was washed off with 1× Dulbecco's phosphate buffered saline (DPBS) and replaced with fresh medium. For stably-transfected cell selection, 0.7 mg/ml G-418 was added to the media. It was changed every 4 days and 10-14 days later, the colonies were pooled and maintained in DMEM (10% FBS) with 0.2 mg/ml G-418.
Since PKCβ is a low copy gene, nuclear run-on assays were not a practical approach to examine transcriptional regulation. […] PKCβ promoter constructs with successive deletions of the 5′ region cloned in front of a promoterless chloramphenicol acetyltransferase (CAT) as the reporter gene were transiently transfected into A10 cells (FIG. 19). pSV-β-Galactosidase was co-transfected with the CAT constructs to normalize the efficiency of transfection. Simultaneous positive and negative controls were carried out as described previously.
Transcriptional repression of PKCβ promoter by transcription factors in response to high glucose was anticipated. […]

[10] = test system: glucose-sensing element; assay: Specificity of the glucose-sensing element for hexoses
[11] = test system: PKCβ(I+II) mRNA; assay: Northern blot of steady state PKCβ(I+II) mRNA in synchronized A10 cells; type: cell-based, rat; conditions: 25 mM mannitol osmotic control, 15-18 hours
Protocol: Cell culture. […] Cells were grown to >90% confluency and media was changed every 4 days. Cell synchronization was achieved by serum deprivation (0.5% FBS) for 48 hours (see, for example, Ross, R., C. Nist, B. Kariya, M. J. Rivest, E. Raines, and J. Callis. 1978. Physiological quiescence in plasma-derived serum: Influence of platelet derived growth factor on cell growth in culture. J. Cell. Physiol. 97:497-508).
Isolation of RNA and Northern Blot Analysis. Total cellular RNA was isolated from 100-mm plates using Tri-Reagent (Molecular Research Center, Inc.). […] Ethidium bromide was added in the loading buffer for visualization and quantitation of 18S and 28S RNA. After fractionation, the integrity and loading of RNA was assessed under UV light (23,24). […] Membranes were washed with high stringency conditions (1×SSC, 0.1% SDS for 15 minutes at 42° C. followed by 0.11× SSC, 0.1% SDS for 15 minutes at 42° C.), and quantitated using Molecular Dynamics Phosphoimaging System. In experiments, where mentioned, membranes were exposed to X-ray film and the autoradiograms were quantitated densitometrically.
Cells incubated with 25 mM mannitol were used as osmotic controls. Total RNA was extracted and the mRNA transcript levels were detected using a full length PKCβ cDNA probe which would cross-hybridize with both PKCβI and PKCβII mRNAs. […]

[12] = test system: PKCβII mRNA; assay: RT-PCR of PKCβII mRNA in primary human aortic smooth muscle cells (AoSMC); type: cell-based; conditions: 4 hours; for effect on PKCβII mRNA: 100 nM insulin
Protocol: (§2) Cells were grown to >90% confluency and medium was changed every 5 days.
as §1

[13] = test system: PKCβI mRNA; assay: RT-PCR of PKCβI mRNA in primary human aortic smooth muscle cells (AoSMC); type: cell-based; conditions: 100 nM insulin, 4 hours
Protocol: as §2, §1

Question: For O=CC[C@@H](O)[C@H](O)[C@H](O)CO [2-DOG, 2-deoxyglucose], which “effect of glucose analogs on PKCβII mRNA” value ([1]; 4 hours) is on record?
Answer: destabilized

Question: With CO[C@@H]([C@H](O)[C@H](O)CO)[C@@H](O)C=O [3-O-Methylglucose, 3-O-methylglucose] as the molecule, how does the “effect of glucose analogs on PKCβII mRNA” value ([1]; 4 hours) read?
Answer: destabilized

Question: With N#C/C(=C/c1ccc(O)c(O)c1)C(=O)NCc1ccccc1 [AG-490] as the molecule, how does the “PERCENT OF PKCβII mRNA POST-GLUCOSE TREATMENT” value [1] read?
Answer: 5%

Question: With CO[C@@H]1[C@H](N(C)C(=O)c2ccccc2)C[C@H]2O[C@]1(C)n1c3ccccc3c3c4c(c5c6ccccc6n2c5c31)C(=O)NC4 [CG 41251] as the molecule, how does the “PERCENT OF PKCβII mRNA POST-GLUCOSE TREATMENT” value [1] read?
Answer: 100%

Question: For O=C1NC(=O)c2cc(Nc3ccc(F)cc3)c(Nc3ccc(F)cc3)cc21 [CGP53353], which “glucose-stimulated rat VSMC proliferation” value [2] is on record?
Answer: inhibits

Question: Which results are given for C[C@@H]1C[C@@H]([C@H](O)CC2CC(=O)NC(=O)C2)C(=O)[C@@H](C)C1 [Cycloheximide]?
Answer: effect of inhibitor on glucose-induced destabilization of PKCβII mRNA [1]: did not block; PERCENT OF PKCβII mRNA POST-GLUCOSE TREATMENT [1]: 10%

Question: For O=C(O)CN(CCN(CC(=O)O)CC(=O)O)CC(=O)O [EDTA], which “degradation of RNA by post-nuclear extract” value [3] is on record?
Answer: No degradation

Question: For N[C@H]1C(O)O[C@H](CO)[C@@H](O)[C@@H]1O (stereo partly shown) [Glucosamine], which “effect on PKCβII mRNA” value ([1]; 10 mM glucosamine in the presence of 5.5 mM glucose, 4 hours) is on record?
Answer: did not destabilize; also recorded: did not affect

Question: And the “effect on PKCβI mRNA” value ([4]; 10 mM glucosamine in the presence of 5.5 mM glucose)?
Answer: did not destabilize; also recorded: did not affect

Question: For CO[C@H]1[C@@H](OC)C[C@H](C)[C@@H](OC)C2=CC(=O)C=C(NC(=O)/C(C)=C/C=C\[C@H](OC)[C@@H](OC(N)=O)/C(C)=C/[C@@H]1C)C2=O [Herbimycin A], which “effect of inhibitor on glucose-induced destabilization of PKCβII mRNA” value [1] is on record?
Answer: prevented

Question: What about the “PERCENT OF PKCβII mRNA POST-GLUCOSE TREATMENT” value [1] of the same molecule?
Answer: 90%

Question: Which “PERCENT OF PKCβII mRNA POST-GLUCOSE TREATMENT” value [1] does the source give for O=c1cc(N2CCOCC2)oc2c(-c3ccccc3)cccc12 [LY 294002] here?
Answer: 90%

Question: Which “effect of inhibitor on glucose-induced destabilization of PKCβII mRNA” value [1] does the source give for C=C1[C@@H](O)[C@@H]2O[C@]3(CC[C@H](/C=C/[C@@H](C)[C@@H]4CC(C)=C[C@@]5(O[C@H](C[C@@](C)(O)C(=O)O)CC[C@H]5O)O4)O3)CC[C@H]2O[C@@H]1[C@@H](O)C[C@H](C)[C@H]1O[C@@]2(CCCCO2)CC[C@H]1C [Okadaic acid] here?
Answer: interfered; also recorded: inhibited the destabilization

Question: And the Ki [5]?
Answer: 0.0002 µM

Question: What about the Ki [6] of the same molecule?
Answer: 0.02 µM

Question: What about the Ki [7] of the same molecule?
Answer: less potent inhibitor

Question: What about the “effect on mRNA stability in GFP reporter system” value [8] of the same molecule?
Answer: mRNA stabilizing compound

Question: With COc1cccc(-c2cc(=O)c3ccccc3o2)c1N [PD 98059] as the molecule, how does the “PERCENT OF PKCβII mRNA POST-GLUCOSE TREATMENT” value [1] read?
Answer: 5%

Question: Which “PERCENT OF PKCβII mRNA POST-GLUCOSE TREATMENT” value [1] does the source give for CO[C@H]1C[C@@H]2CC[C@@H](C)[C@@](O)(O2)C(=O)C(=O)N2CCCC[C@H]2C(=O)O[C@H]([C@H](C)C[C@@H]2CC[C@@H](O)[C@H](OC)C2)CC(=O)[C@H](C)/C=C(\C)[C@@H](O)[C@@H](OC)C(=O)[C@H](C)C[C@H](C)/C=C/C=C/C=C/1C [Rapamycin] here?
Answer: 5%

Question: With CCCCCCCCCCCCCC(=O)O[C@@H]1[C@@H](C)[C@@]2(O)[C@@H](C=C(CO)C[C@]3(O)C(=O)C(C)=C[C@@H]23)[C@@H]2C(C)(C)[C@]12OC(C)=O [TPA, 12-O-tetradecanoylphorbol-13-acetate] as the molecule, how does the “increase of promoter activity in all constructs” value [9] read?
Answer: ten-fold

Question: Which “destabilization of the glucose-sensing element” value [10] does the source give for O=C(CO)[C@@H](O)[C@H](O)[C@H](O)CO [fructose] here?
Answer: do not destabilize

Question: With OC[C@@H](O)[C@@H](O)[C@H](O)[C@H](O)CO [mannitol] as the molecule, how does the “PKCβ(I+II) mRNA levels” value [11] read?
Answer: remained unchanged

Question: And the “levels of PKCβII mRNA” value ([1]; 5.5 mM glucose+19.5 mM mannitol (osmotic control), 4 hours)?
Answer: did not; also recorded: remained unchanged

Question: And the “levels of PKCβI mRNA” value ([4]; 5.5 mM glucose+19.5 mM mannitol (osmotic control))?
Answer: remained unchanged

Question: And the “destabilization of the glucose-sensing element” value [10]?
Answer: do not destabilize

Question: Which “effect on PKCβII mRNA” value [12] does the source give for “insulin: hormone that promotes glucose uptake” here?
Answer: did not significantly affect

Question: And the “effect on PKCβII mRNA” value ([12]; listed as Insulin)?
Answer: did not destabilize

Question: And the “PKCβII mRNA diminished” value ([12]; 25 mM glucose+100 nM insulin)?
Answer: 60%

Question: And the “effect on PKCβI mRNA” value [13]?
Answer: did not significantly affect

Question: And the “effect on PKCβI mRNA” value ([13]; listed as Insulin)?
Answer: did not destabilize
